Patent US12534472B2, “Morphic forms of trilaciclib and methods of manufacture thereof” (Pharmacosmos Holding A/S, priority 2020, dated 2026)

Key:
Format in all cases: physicochemical
[1] = Dynamic Vapor Sorption (DVS); details: Cycle 3, sorption, 25° C.
[2] = Dynamic Vapor Sorption (DVS); details: for Change in Mass (%)-ref Desorption / Change in Mass (%)-ref Sorption / Change in Mass (%)-ref Hysteresis: DVS; for Change in Mass (%)-ref Desorption / Change in Mass (%)-ref Sorption: 25° C.
Method: Approximately, 10-20 mg of sample was placed into a mesh vapor sorption balance pan and loaded into a DVS Intrinsic dynamic vapor sorption balance by Surface Measurement Systems. The sample was subjected to a ramping profile from 40-90% relative humidity (RH) at 10% increments, maintaining the sample at each step until a stable weight had been achieved (dm/dt 0.004%, minimum step length 30 minutes, maximum step length 500 minutes) at 25° C. After completion of the sorption cycle, the sample was dried using the same procedure to 0% RH and then a second sorption cycle back to 40% RH. Two cycles were performed. The weight change during the sorption/desorption cycles were plotted, allowing for the hygroscopic nature of the sample to be determined. XRPD analysis was then carried out on any solid retained. The above technique was used to generate the images in FIG. 5, FIG. 6, FIG. 47 and FIG. 48.

[3] = Thermodynamic solubility in water at pH 4.2
Method: Thermodynamic solubility was carried out for Pattern 1, Pattern 2/6 mixture, Pattern 3, amorphous di-HCl salts and Pattern 7 in water at pH 4.2. All samples were prepared at 30 mg/mL. Initial observations were made. The samples were agitated at ambient temperature for ca. 24 hours. The samples were collected and observations made. Observed solids were isolated via centrifugation. The mother liquor from the filtered sample was analyzed by HPLC. The pH 4.3 solution was prepared by diluting glacial acetic acid (11.6 mL) to 100 mL in deionized water, then adding sodium acetate (1.07 g) and acetic acid solution (5.9 mL) preparing up to 500 mL with deionized water; then the pH was adjusted to 4.2. The above technique was used to generate the images in FIG. 60.

CN1CCN(c2ccc(Nc3ncc4cc5n(c4n3)C3(CCCCC3)CNC5=O)nc2)CC1 [Pattern 3, 2′-((5-(4-methylpiperazin-1-yl)pyridin-2-yl)amino)-7′,8′-dihydro-6′H-spiro[cyclohexane-1,9′-pyrazino[1′,2′:1,5]pyrrolo[2,3-d]pyrimidin]-6′-one]
Change in Mass (%)-ref Sorption ([1]; target RH 0%): 0.075% | Change in Mass (%)-ref Sorption ([1]; target RH 30%): 1.443% | Change in Mass (%)-ref Desorption ([2]; Cycle 1, desorption, target RH 0%): 0.000% | Change in Mass (%)-ref Desorption ([2]; Cycle 1, desorption, target RH 10%): 0.863% | Change in Mass (%)-ref Desorption ([2]; Cycle 1, desorption, target RH 20%): 1.274% | Change in Mass (%)-ref Desorption ([2]; Cycle 1, desorption, target RH 30%): 1.818% | Change in Mass (%)-ref Desorption ([2]; Cycle 1, desorption, target RH 40%): 2.223% | Change in Mass (%)-ref Desorption ([2]; Cycle 1, desorption, target RH 50%): 2.491% | Change in Mass (%)-ref Desorption ([2]; Cycle 1, desorption, target RH 60%): 2.727% | Change in Mass (%)-ref Desorption ([2]; Cycle 1, desorption, target RH 70%): 2.940% | Change in Mass (%)-ref Desorption ([2]; Cycle 1, desorption, target RH 80%): 3.171% | Change in Mass (%)-ref Desorption ([2]; Cycle 1, desorption, target RH 90%): 3.555% | Change in Mass (%)-ref Sorption ([2]; Cycle 1, sorption, target RH 40%): 2.516% | Change in Mass (%)-ref Sorption ([2]; Cycle 1, sorption, target RH 50%): 2.780% | Change in Mass (%)-ref Sorption ([2]; Cycle 1, sorption, target RH 60%): 2.970% | Change in Mass (%)-ref Sorption ([2]; Cycle 1, sorption, target RH 70%): 3.115% | Change in Mass (%)-ref Sorption ([2]; Cycle 1, sorption, target RH 80%): 3.288% | Change in Mass (%)-ref Sorption ([2]; Cycle 1, sorption, target RH 90%): 3.555% | Change in Mass (%)-ref Hysteresis ([2]; Cycle 1, target RH 40%): −0.292% | Change in Mass (%)-ref Hysteresis ([2]; Cycle 1, target RH 50%): −0.289% | Change in Mass (%)-ref Hysteresis ([2]; Cycle 1, target RH 60%): −0.242% | Change in Mass (%)-ref Hysteresis ([2]; Cycle 1, target RH 70%): −0.175% | Change in Mass (%)-ref Hysteresis ([2]; Cycle 1, target RH 80%): −0.117% | Change in Mass (%)-ref Desorption ([2]; Cycle 2, desorption, target RH 0%): 0.075% | Change in Mass (%)-ref Desorption ([2]; Cycle 2, desorption, target RH 10%): 0.885% | Change in Mass (%)-ref Desorption ([2]; Cycle 2, desorption, target RH 20%): 1.290% | Change in Mass (%)-ref Desorption ([2]; Cycle 2, desorption, target RH 30%): 1.711% | Change in Mass (%)-ref Desorption ([2]; Cycle 2, desorption, target RH 40%): 1.977% | Change in Mass (%)-ref Desorption ([2]; Cycle 2, desorption, target RH 50%): 2.171% | Change in Mass (%)-ref Desorption ([2]; Cycle 2, desorption, target RH 60%): 2.337% | Change in Mass (%)-ref Desorption ([2]; Cycle 2, desorption, target RH 70%): 2.510% | Change in Mass (%)-ref Desorption ([2]; Cycle 2, desorption, target RH 80%): 2.717% | Change in Mass (%)-ref Desorption ([2]; Cycle 2, desorption, target RH 90%): 3.093% | Change in Mass (%)-ref Sorption ([2]; Cycle 2, sorption, target RH 0%): 0.000% | Change in Mass (%)-ref Sorption ([2]; Cycle 2, sorption, target RH 10%): 0.831% | Change in Mass (%)-ref Sorption ([2]; Cycle 2, sorption, target RH 20%): 1.198% | Change in Mass (%)-ref Sorption ([2]; Cycle 2, sorption, target RH 30%): 1.468% | Change in Mass (%)-ref Sorption ([2]; Cycle 2, sorption, target RH 40%): 1.853% | Change in Mass (%)-ref Sorption ([2]; Cycle 2, sorption, target RH 50%): 2.092% | Change in Mass (%)-ref Sorption ([2]; Cycle 2, sorption, target RH 60%): 2.271% | Change in Mass (%)-ref Sorption ([2]; Cycle 2, sorption, target RH 70%): 2.461% | Change in Mass (%)-ref Sorption ([2]; Cycle 2, sorption, target RH 80%): 2.700% | Change in Mass (%)-ref Sorption ([2]; Cycle 2, sorption, target RH 90%): 3.093% | Change in Mass (%)-ref Hysteresis ([2]; Cycle 2, target RH 10%): 0.054% | Change in Mass (%)-ref Hysteresis ([2]; Cycle 2, target RH 20%): 0.091% | Change in Mass (%)-ref Hysteresis ([2]; Cycle 2, target RH 30%): 0.243% | Change in Mass (%)-ref Hysteresis ([2]; Cycle 2, target RH 40%): 0.124% | Change in Mass (%)-ref Hysteresis ([2]; Cycle 2, target RH 50%): 0.080% | Change in Mass (%)-ref Hysteresis ([2]; Cycle 2, target RH 60%): 0.066% | Change in Mass (%)-ref Hysteresis ([2]; Cycle 2, target RH 70%): 0.050% | Change in Mass (%)-ref Hysteresis ([2]; Cycle 2, target RH 80%): 0.018% | Change in Mass (%)-ref Sorption ([2]; Cycle 3, sorption, target RH 10%): 0.861% | Change in Mass (%)-ref Sorption ([2]; Cycle 3, sorption, target RH 20%): 1.198% | Change in Mass (%)-ref Sorption ([2]; Cycle 3, sorption, target RH 40%): 1.757% | moisture adsorbed (DVS) ([2]; at 40% RH, listed as Pattern 3 scale-up): 2.5 wt % | moisture adsorbed (DVS) ([2]; at 60% RH): 3.1 wt % | mass increase by DVS ([2]; at 90% RH): ca. 4% | moisture adsorbed (DVS) ([2]; at 90% RH, listed as Pattern 3 scale-up): 3.5 wt % | mass increase by DVS ([2]; between 0% and 90% RH): 4% | Observations at T = 24 hours ([3]; 30 mg/mL in water at pH 4.2, agitated at ambient temperature ca. 24 hours): Yellow solution | Observations at T = 0 hours ([3]; 30 mg/mL in water at pH 4.2, ambient temperature, T = 0 hours): Yellow solution (dissolved
